Literature values as cited in PMC8801796 (Reproductive Toxicology (Elmsford, N.y.), 2022).
Read-outs that look alike come from different tables or passages of the source.

Experiments:
[1] = tested on: monkeys, mice, rats, and rabbits; conditions: cited from earlier work
[2] = tested on: rats, rabbits, and guinea pigs; conditions: cited from earlier work
[3] = tested on: Big Blue® (cII Locus) transgenic rodent; conditions: cited from earlier work
[4] = tested on: rats; conditions: cited from earlier work
[5] = tested on: bacterial reverse mutation; conditions: in vitro; cited from earlier work
[6] = tested on: hypoxanthine phosphoribosyltransferase (HPRT) gene; conditions: mammalian cell; cited from earlier work
[7] = tested on: rabbits; conditions: cited from earlier work
[8] = tested on: rats; conditions: rat PPND, maternal dosing GD 6 to postpartum day 20; cited from earlier work

For `NC(=O)c1nc(F)c[nH]c1=O` [FAV, favipiravir], which Teratogenicity [1] is on record?
The Teratogenicity was “teratogenesis has been reported”.

With `NC(=O)c1ncn([C@@H]2O[C@H](CO)[C@@H](O)[C@H]2O)n1` [RBV, ribavirin] as the compound, how does the Teratogenicity [2] read?
Its Teratogenicity is “embryocidal and/or teratogenic”.

Which “Big Blue transgenic rodent mutagenesis assay result” value [3] does the source give for `CC(C)C(=O)OC[C@H]1O[C@@H](n2ccc(NO)nc2=O)[C@H](O)[C@@H]1O` [molnupiravir] here?
The value was “negative”.

And the Developmental toxicity ([4]; rats, 250 mg/kg/day)?
The Developmental toxicity was “no developmental toxicity”.

What about the Developmental toxicity ([4]; rats, 500 mg/kg/day, in the presence of decreased maternal body weight gain) of the same compound?
Its Developmental toxicity is “lower fetal body weights and delayed ossification”.

What about the Developmental toxicity ([4]; rats, 1000 mg/kg/day (highest dose)) of the same compound?
Its Developmental toxicity is “severe manifestations of developmental toxicity (malformations and embryo-fetal lethality)”.

What about the Ames assay result [5] of the same compound?
Its Ames assay result is “positive”.

And the “HPRT gene mutation assay result” value [6]?
The value was “positive”.

What about the Developmental toxicity ([7]; rabbits, 400 mg/kg/day) of the same compound?
The Developmental toxicity was “no developmental toxicity”.

What about the Developmental toxicity ([7]; rabbits, 750 mg/kg/day, in the presence of slight maternal toxicity) of the same compound?
Its Developmental toxicity is “lower fetal body weights”.

Which results are given for `CCC(CC)COC(=O)[C@H](C)N[P@](=O)(OC[C@H]1O[C@@](C#N)(c2ccc3c(N)ncnn23)[C@H](O)[C@@H]1O)Oc1ccccc1` [remdesivir]?
Effects on embryo-fetal development ([4]; rats, up the highest dose tested, 20 mg/kg/day): no adverse effects on embryo-fetal development; Effects on embryo-fetal development ([7]; rabbits, up the highest dose tested, 20 mg/kg/day): no adverse effects on embryo-fetal development

Which “Cryptorchidism in postnatal developing rats” value [8] does the source give for `CC(C)c1nc(CN(C)C(=O)N[C@H](C(=O)N[C@@H](Cc2ccccc2)C[C@H](O)[C@H](Cc2ccccc2)NC(=O)OCc2cncs2)C(C)C)cs1` [ritonavir] here?
Its value is “no reports of cryptorchidism”.

What about the “Cryptorchidism in rat EFD study” value ([4]; mid (35 mg/kg/day) and high (75 mg/kg/day) doses) of the same compound?
Its value is “cryptorchidism was reported”.

What about the Fetal malformations ([4]; rat EFD, doses of 15, 35, and 75 mg/kg) of the same compound?
The Fetal malformations was “no evidence of fetal malformations”.

What about the “Developmental toxicity findings in EFD studies” value ([4]; rats and/or rabbits, only at the highest dose evaluated in each species, maternally toxic doses) of the same compound?
Its value is “higher resorptions, lower fetal body weight, ossification delays, and increased skeletal variations”.

And the Fetal malformations ([7]; rabbit EFD, doses of 25, 50, and 110 mg/kg/day)?
The Fetal malformations was “no evidence of fetal malformations”.
